Results on 67 compounds are retold here after patent publication US12336982B2 (RODEO THERAPEUTICS CORPORATION, priority 2018, dated 2025).

The test concerns the target T1, recombinant 15-PGDH (Homo sapiens, UniProt P15428).
T1 sequence (P15428 1-266): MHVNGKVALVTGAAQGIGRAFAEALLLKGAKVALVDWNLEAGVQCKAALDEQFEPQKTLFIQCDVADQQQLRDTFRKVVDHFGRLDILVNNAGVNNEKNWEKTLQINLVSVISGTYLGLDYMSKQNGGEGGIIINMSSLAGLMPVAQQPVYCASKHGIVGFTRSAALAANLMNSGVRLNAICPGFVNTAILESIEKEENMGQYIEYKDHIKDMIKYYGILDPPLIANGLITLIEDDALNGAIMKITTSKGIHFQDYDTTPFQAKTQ
The class given is biochemical. Particulars: recombinant human 15-PGDH, in vitro; read-out: PDGH Assay-IC50.

Some results are limits rather than exact numbers.

As a reminder, the IC50 is the concentration at which inhibition is half-maximal.

Source text: The Recombinant 15-PGDH is human unless otherwise specified.

For the compound `Nc1c([S@+]([O-])C2CCC2)sc2nc(-c3cnc(NCCO)nc3)cc(-c3cccnc3)c12` (stereo in doubt) [Example 103], the IC50 was under 2.5 nM.

As for `Nc1c([S+]([O-])C2CCC2)sc2nc(-c3cccnc3)cc(C3CCOCC3)c12` (stereo not shown) [Example 43], the IC50 is under 2.5 nM. The same measure for `Nc1c([S+]([O-])C2CCC2)sc2nc(-c3cnc(NCCO)nc3)cc(-c3ccccc3)c12` (stereo not shown) [Example 44]: under 2.5 nM; for `CN(C)CCNc1ncc(-c2cc(-c3ccccc3)c3c(N)c([S+]([O-])C4CCC4)sc3n2)cn1` (stereo not shown) [Example 45]: at least 10 nM. In the case of `COCCC[S+]([O-])c1sc2nc(-c3cnc(N)nc3)cc(-c3ccc(F)cc3)c2c1N` (stereo not shown) [Example 46], the IC50 was under 2.5 nM. Take `CN(C)CCOc1ncc(-c2cc(-c3ccccc3)c3c(N)c([S+]([O-])C4CCC4)sc3n2)cn1` (stereo not shown) [Example 47]: the half-maximal inhibitory concentration (IC50) lay in the range of 2.5 to 10 nM. In the case of `CN1CCN(c2ncc(-c3cc(-c4ccccc4)c4c(N)c([S@+]([O-])C5CCC5)sc4n3)cn2)CC1` [Example 48], the IC50 is under 2.5 nM. The same measure for `CN1CCN(c2ncc(-c3cc(-c4ccccc4)c4c(N)c([S@@+]([O-])C5CCC5)sc4n3)cn2)CC1` [Example 49]: at least 10 nM; for `Nc1c([S+]([O-])C2CCC2)sc2nc(-c3cccnc3)cc(-c3cccnc3)c12` (stereo not shown) [Example 50]: under 2.5 nM; for `Nc1c([S@+]([O-])C2CCC2)sc2nc(-c3cnc(NCCO)nc3)cc(-c3ccccc3)c12` [Example 51]: under 2.5 nM.

Turning to `Nc1c([S@@+]([O-])C2CCC2)sc2nc(-c3cnc(NCCO)nc3)cc(-c3ccccc3)c12` [Example 52], the IC50 was at least 10 nM. As to `CNC(=O)c1ncc(-c2cc(-c3ccccc3)c3c(N)c([S+]([O-])C4CCC4)sc3n2)cn1` (stereo not shown) [Example 53], the IC50 is under 2.5 nM. Under `COCCC[S@@+]([O-])c1sc2nc(-c3cccnc3)nc(-c3ccccc3)c2c1N` [Example 54] stands under 2.5 nM; under `COCC[S@@+]([O-])c1sc2nc(-c3cccnc3)nc(-c3ccccc3)c2c1N` [Example 55], under 2.5 nM. On to `COCCC[S+]([O-])c1sc2nc(-c3cccnc3)cc(C(F)(F)F)c2c1N` (stereo not shown) [Example 56], for which the IC50 is under 2.5 nM. Take `COCC[S+]([O-])c1sc2nc(-c3cccnc3)cc(C(F)(F)F)c2c1N` (stereo not shown) [Example 57]: the IC50 is under 2.5 nM. Take `Nc1c([S+]([O-])C2CCC2)sc2nc(-c3cccnc3)cc(C(F)(F)F)c12` (stereo not shown) [Example 58]: the IC50 was under 2.5 nM.

On to `CC(=O)N1CCC(c2cc(-c3ccc(F)cc3)c3c(N)c([S+]([O-])C4CCC4)sc3n2)CC1` (stereo not shown) [Example 59], for which the IC50 was at least 10 nM. With `CN(C)CCOc1ccc(-c2cc(-c3ccccc3)c3c(N)c([S+]([O-])C4CCC4)sc3n2)cn1` (stereo not shown) [Example 60], the IC50 was 2.5 to 10 nM. For the compound `CN(C)C(=O)c1ncc(-c2cc(-c3ccccc3)c3c(N)c([S+]([O-])C4CCC4)sc3n2)cn1` (stereo not shown) [Example 61], the half-inhibitory concentration (IC50) was in the range of 2.5 to 10 nM. For `COCCC[S@@+]([O-])c1sc2nc(-c3cnc(N)nc3)cc(-c3ccc(F)cc3)c2c1N` [Example 62], the IC50 was under 2.5 nM.

`Nc1c([S+]([O-])C2CCC2)sc2nc(-c3ccc(NCCO)nc3)cc(-c3ccccc3)c12` (stereo not shown) [Example 63]: the IC50 is under 2.5 nM. Under `Cn1cnc(-c2cc(-c3cncnc3)nc3sc([S@+]([O-])C4CCC4)c(N)c23)c1` [Example 64] stands under 2.5 nM; under `Cn1cnc(-c2cc(-c3cncnc3)nc3sc([S@@+]([O-])C4CCC4)c(N)c23)c1` [Example 65], at least 10 nM; under `Nc1ncc(-c2cc(-c3ccc(F)cn3)c3c(N)c([S+]([O-])C4CCC4)sc3n2)cn1` (stereo not shown) [Example 66], under 2.5 nM. In the case of `Nc1ncc(-c2cc(-c3cncc(F)c3)c3c(N)c([S+]([O-])C4CCC4)sc3n2)cn1` (stereo not shown) [Example 67], the IC50 is under 2.5 nM.

With `CS(=O)(=O)Nc1ncc(-c2cc(-c3ccccc3)c3c(N)c([S@+]([O-])C4CCC4)sc3n2)cn1` [Example 68], the IC50 was under 2.5 nM. Turning to `CS(=O)(=O)Nc1ncc(-c2cc(-c3ccccc3)c3c(N)c([S@@+]([O-])C4CCC4)sc3n2)cn1` [Example 69], the IC50 was at least 10 nM. Regarding `COCCC[S+]([O-])c1sc2nc(-c3ccc(NCCO)nc3)cc(-c3ccc(F)cc3)c2c1N` (stereo not shown) [Example 70], the IC50 lay in the range of 2.5 to 10 nM. As for `COCCC[S+]([O-])c1sc2nc(-c3cnc(NCCO)nc3)cc(-c3ccc(F)cc3)c2c1N` (stereo not shown) [Example 71], the IC50 fell in the range of 2.5 to 10 nM. Turning to `COCC[S+]([O-])c1sc2nc(-c3cncnc3)cc(-c3ccccc3)c2c1N` (stereo not shown) [Example 72], the concentration for half-maximal inhibition (IC50) was under 2.5 nM. As to `COCC[S+]([O-])c1sc2nc(-c3cnc(N)nc3)cc(-c3ccccc3)c2c1N` (stereo not shown) [Example 73], the IC50 is under 2.5 nM. The same measure for `COCCC[S+]([O-])c1sc2nc(-c3cnc4c(cnn4C)c3)cc(-c3cccnc3)c2c1N` (stereo not shown) [Example 74]: under 2.5 nM; for `COCCC[S+]([O-])c1sc2nc(-c3cnc4nn(C)cc4c3)cc(-c3cccnc3)c2c1N` (stereo not shown) [Example 75]: under 2.5 nM; for `Nc1ncc(-c2cc(-c3ncccc3F)c3c(N)c([S+]([O-])C4CCC4)sc3n2)cn1` (stereo not shown) [Example 76]: under 2.5 nM. Turning to `Nc1ncc(-c2cc(-c3ncccc3F)c3c(N)c([S+]([O-])C4CCC4)sc3n2)cn1` (stereo not shown) [Example 77], the IC50 was under 2.5 nM. On to `COCCC[S@@+]([O-])c1sc2nc(-c3cccnc3)cc(C(F)(F)F)c2c1N` [Example 78], for which the IC50 is under 2.5 nM. In the case of `COCCC[S@+]([O-])c1sc2nc(-c3cccnc3)cc(C(F)(F)F)c2c1N` [Example 79], the IC50 is at least 10 nM. In the case of `COCC[S@@+]([O-])c1sc2nc(-c3cccnc3)cc(C(F)(F)F)c2c1N` [Example 80], the IC50 is under 2.5 nM. Consider `COCC[S@+]([O-])c1sc2nc(-c3cccnc3)cc(C(F)(F)F)c2c1N` [Example 81], for which the IC50 is at least 10 nM. Take `Nc1c([S+]([O-])C2CCC2)sc2nc(-c3cnc(NCCO)nc3)cc(-c3ccccn3)c12` (stereo not shown) [Example 82]: the IC50 is under 2.5 nM. As to `Nc1c([S+]([O-])C2CCC2)sc2nc(-c3ccc(NCCO)nc3)cc(-c3ccccn3)c12` (stereo not shown) [Example 83], the IC50 is under 2.5 nM. Regarding `Nc1c([S+]([O-])C2CCC2)sc2nc(-c3cncnc3)cc(-c3cccnc3)c12` (stereo not shown) [Example 84], the IC50 is under 2.5 nM. Turning to `COCC[S@@+]([O-])c1sc2nc(-c3cncnc3)cc(-c3ccccc3)c2c1N` [Example 85], the IC50 was under 2.5 nM. With `COCC[S@+]([O-])c1sc2nc(-c3cncnc3)cc(-c3ccccc3)c2c1N` [Example 86], the IC50 was at least 10 nM. Take `COCC[S@@+]([O-])c1sc2nc(-c3cnc(N)nc3)cc(-c3ccccc3)c2c1N` [Example 87]: the IC50 was under 2.5 nM. For `COCC[S@+]([O-])c1sc2nc(-c3cnc(N)nc3)cc(-c3ccccc3)c2c1N` [Example 88], the IC50 was at least 10 nM. Consider `Cn1cc(-c2cc(-c3cccnc3)c3c(N)c([S+]([O-])C4CCC4)sc3n2)ccc1=O` (stereo not shown) [Example 89], for which the IC50 is under 2.5 nM. The same measure for `Cn1ccc(-c2cc(-c3cccnc3)c3c(N)c([S+]([O-])C4CCC4)sc3n2)cc1=O` (stereo not shown) [Example 90]: 2.5 to 10 nM; for `COCCC[S+]([O-])c1sc2nc(-c3cncnc3)cc(-c3ncccn3)c2c1N` (stereo not shown) [Example 91]: under 2.5 nM; for `Nc1c([S+]([O-])C2CCC2)sc2nc(-c3cnc(NCCO)nc3)cc(-c3ccccn3)c12` (stereo not shown) [Example 92]: under 2.5 nM. Under `CS(=O)(=O)Nc1ncc(-c2cc(-c3cccnc3)c3c(N)c([S+]([O-])C4CCC4)sc3n2)cn1` (stereo not shown) [Example 93] stands under 2.5 nM; under `Nc1c([S@+]([O-])C2CCC2)sc2nc(-c3cnc(NCCO)nc3)cc(-c3ccccn3)c12` [Example 94], under 2.5 nM; under `Nc1c([S@@+]([O-])C2CCC2)sc2nc(-c3cnc(NCCO)nc3)cc(-c3ccccn3)c12` [Example 95], at least 10 nM.

In the case of `Nc1c([S@@+]([O-])C2CCC2)sc2nc(-c3ccc(NCCO)nc3)cc(-c3ccccn3)c12` [Example 96], the IC50 was under 2.5 nM. Regarding `Nc1c([S@+]([O-])C2CCC2)sc2nc(-c3ccc(NCCO)nc3)cc(-c3ccccn3)c12` [Example 97], the IC50 was under 2.5 nM.

As for `Nc1c([S+]([O-])C2CCC2)sc2nc(-c3cncnc3)cc(-c3ncccn3)c12` (stereo not shown) [Example 98], the IC50 is under 2.5 nM. Take `Cc1ncc(-c2cc(-c3ccccc3)c3c(N)c([S+]([O-])C4CCC4)sc3n2)cn1` (stereo not shown) [Example 99]: the IC50 was under 2.5 nM. Under `COC(=O)Nc1ccc(-c2cc(-c3cccnc3)c3c(N)c([S+]([O-])C4CCC4)sc3n2)cn1` (stereo not shown) [Example 100] stands under 2.5 nM. Under `COCCC[S@@+]([O-])c1sc2nc(-c3cnc4c(cnn4C)c3)cc(-c3cccnc3)c2c1N` [Example 101] stands under 2.5 nM.

Consider `COCCC[S@+]([O-])c1sc2nc(-c3cnc4c(cnn4C)c3)cc(-c3cccnc3)c2c1N` [Example 102], for which the half-inhibitory concentration (IC50) was at least 10 nM. In the case of `Nc1c([S@@+]([O-])C2CCC2)sc2nc(-c3cnc(NCCO)nc3)cc(-c3cccnc3)c12` [Example 104], the half-inhibitory concentration (IC50) was at least 10 nM. On to `COCCC[S+]([O-])c1sc2nc(-c3ccc(NC(=O)OC)nc3)cc(-c3cccnc3)c2c1N` (stereo not shown) [Example 105], for which the IC50 was in the range of 2.5 to 10 nM. Consider `COCCC[S+]([O-])c1sc2nc(-c3cncnc3)cc(C3CC3)c2c1N` (stereo not shown) [Example 106], for which the IC50 was under 2.5 nM. Consider `COCCC[S+]([O-])c1sc2nc(-c3cnc(N)nc3)cc(C3CC3)c2c1N` (stereo not shown) [Example 107], for which the IC50 was under 2.5 nM. With `CS(=O)(=O)Nc1ncc(-c2cc(-c3ccccn3)c3c(N)c([S+]([O-])C4CCC4)sc3n2)cn1` (stereo not shown) [Example 108], the half-maximal inhibitory concentration (IC50) is under 2.5 nM. The same measure for `COCC[S+]([O-])c1sc2nc(-c3cncnc3)cc(C3CC3)c2c1N` (stereo not shown) [Example 109]: under 2.5 nM.
